From article PMC6155649 (Molecules : A Journal of Synthetic Chemistry and Natural …, 2017)
Read-outs that look alike come from different tables or passages of the source. Marks after values point to notes of the source that are not given here.

Tests used:
P. falciparum Dd2 [1] = test: tritiated hypoxanthine incorporation growth inhibition assay; type: cell-based; details: for IC50: mean value
Procedure: (§1) The protocols are described in the experimental section. Two protocols to measure the growth inhibition were used: the tritiated hypoxanthine incorporation method and the SYBRgreen method. This was due to the fact that the radioactive assay was abandoned in the laboratory due to cost issues related to radioactive waste disposal. […] All data are mean values from one to four independent experiments, each consisting of eight drug concentrations in duplicate.
The IC50 values were determined using standard in vitro proliferation assays. […] The amount of radioactivity in precipitable material served as an index of parasite proliferation.

[2] = tested on: human lung MRC-5 fibroblasts; test: cytotoxicity, Alamar Blue (resazurin) assay; details: human MRC-5 fibroblasts, 3 days incubation
Procedure: All compounds were tested for cytotoxicity on human lung MRC-5 fibroblasts using the Alamar Blue assay (Table 1 and Table 2).
MRC-5SV2 cells are cultured in Earls MEM +5% FCSi. […] After 3 days incubation, cell viability is assessed fluorimetrically after addition of resazurin and fluorescence is measured (λex 550 nm, λem 590 nm). The results are expressed as % reduction in cell growth/viability compared to untreated control wells and CC50 is determined.

P. falciparum Dd2 [3] = test: SYBRgreen growth inhibition assay; type: cell-based; details: read-out: IC50 (nM) ± SD (n)
Procedure: as §1
Parasite replication was assessed by fluorescent SYBRgreen staining of parasitic DNA [60] as previously described. IC50 values were calculated using SigmaPlot.

P. falciparum Dd2 [4] = tested on: P. falciparum Dd2; set-up: method as in PMID 21682307; details: P. falciparum Dd2, tritiated hypoxanthine incorporation method, previously reported values; cited from earlier work
[5] = tested on: human lung MRC-5 fibroblasts; set-up: method as in PMID 21682307; details: human MRC-5 fibroblasts, previously reported values; cited from earlier work
P. berghei strain ANKA = tested on: P. berghei strain ANKA; set-up: method as in PMID 21682307; details: P. berghei strain ANKA-infected CD1 mice, day 4; cited from earlier work
P. berghei (ANKA-strain) = test: in vivo antimalarial activity in P. berghei ANKA-infected Swiss mice; set-up: species or system Plasmodium berghei; details: for % Parasitaemia (dpi) 4 / % Suppression (dpi) 4: day 4 post infection; for % Parasitaemia (dpi) 7 / % Suppression (dpi) 7: day 7 post infection; for % Parasitaemia (dpi) 11 / % Suppression (dpi) 11: day 11 post infection
Procedure: Swiss mice (female—BW ~ 25 g; Janvier France, Le Genest Saint Isle, France) were allocated randomly to five groups of four animals each. Drinking water and food were available ad libitum throughout the experiment.
P. berghei (ANKA-strain) is maintained in the laboratory by weekly mechanical subpassage in Swiss mice. The infection inoculum was prepared by taking heparinized blood was collected from a clinically ill donor mouse (approximately 20% parasitaemia) and diluted in PBS to obtain an infection inoculum of 0.15 mL with about 4 × 10^8 infected erythrocytes. The infection-inoculum was given intraperitoneally. The untreated infected controls developed severe malaria with most animals showing severe clinical signs on day 4. […]. […]

Fe^III-heme = details: read-out: KD of the 1:1 π-π complex with Fe^III-heme; pH 7.5; cited from earlier work
[6] = absorption spectrophotometric titrations versus pH (pKa); details: for [LH+]pH5/[LH+]pH7.4: ratio of protonated species at pH 5 and 7.4, I = 0.1 M NaClO4, T = 25 °C; for pH of precipitation during the titration: H2O/DMSO, 91/1 v/v as printed, pKa could not be accurately evaluated
From the text: The HClO4 and NaOH solutions were freshly prepared just before use and titrated with sodium tetraborate decahydrate (B4Na2O7·10H2O, puriss, p.a, Fluka) and potassium hydrogen phthalate (C8H5KO3, Fluka, puriss, p.a.), respectively, using methyl orange (RAL) and phenolphthalein (Prolabo, purum) as the indicators. The GLEE program was applied for the glass electrode calibration (standard electrode potential E0/mV and slope of the electrode/mV pH^−1) and to check carbonate levels of the NaOH solutions used (<5%). The cell was thermostated at 25.0 ± 0.2 °C by the flow of a Lauda E200 thermostat. A stream of argon, pre-saturated with water vapour, was passed over the surface of the solution.
The spectrophotometric data were analyzed with the Specfit program which adjusts the absorptivities and the stability constants of the species formed at equilibrium. Specfit uses factor analysis to reduce the absorbance matrix and to extract the eigenvalues prior to the multiwavelength fit of the reduced data set according to the Marquardt algorithm.

[7] = in 0.4 M KCl; cited from earlier work
[8] = P. falciparum Dd2, tritiated hypoxanthine incorporation method
[9] = P. falciparum Dd2, SYBRgreen method, 72 h
[10] = Plasmodium falciparum, DD2, 72 h
[11] = 10 mg/kg ip for 5 days, Swiss mice
[12] = 10 mg/kg ip for 5 days, Swiss mice, day 14 post infection
[13] = 10 mg/kg ip for 5 days, infected Swiss mice
[14] = Plasmodium falciparum, P. falciparum Dd2, SYBRgreen method, 72 h
[15] = 0.1 M NaClO4 in water/DMSO (91:9 v/v)
[16] = Plasmodium falciparum, DD2, P. falciparum Dd2, tritiated hypoxanthine incorporation method
[17] = 50 mg/kg ip for 5 days, Swiss mice

2-(4′-nitro-Butyl-biphenyl-4-ylmethyl)-3-methyl-[1,4]naphthoquinone [Compound 28]
IC50 (P. falciparum Dd2 [1]; [8]): 474 nM | Tox/MRC-5 [2]: >64.0 µM

2-Methyl-3-(2-bromo-benzyl)-4a,8a-dihydro-[1,4]naphthoquinone [Compound 25a]
IC50 (P. falciparum Dd2 [3]; [9]): 86.3 nM | Tox/MRC-5 [2]: >64.0 µM

2-Methyl-3-(3-bromo-benzyl)-4a,8a-dihydro-[1,4]naphthoquinone [Compound 25b]
IC50 (P. falciparum Dd2 [3]; [9]): 128 nM | Tox/MRC-5 [2]: 20.8 µM

2-Methyl-3-(4-bromo-benzyl)-4a,8a-dihydro-[1,4]naphthoquinone [Compound 25c]
IC50 (P. falciparum Dd2 [3]; [9]): 82 ± 2 nM | IC50 (P. falciparum Dd2 [4]): 46 ± 4 nM | Tox/MRC-5 [5]: >32.0 µM | Tox/MRC-5 (µM) [5]: >32.0 ^b µM | reduction of parasitemia (P. berghei strain ANKA): 35.8%

CCN(CC)CCCC(C)Nc1ccnc2cc(Cl)ccc12 (stereo not drawn) [Chloroquine, chloroquine]
IC50 (P. falciparum Dd2 [3]; [10]): 99 ± 19 nM | % Parasitaemia (dpi) 4 (P. berghei (ANKA-strain); [11]): 5.2% | % Suppression (dpi) 4 (P. berghei (ANKA-strain); [11]): 86.3% | % Parasitaemia (dpi) 7 (P. berghei (ANKA-strain); [11]): 9.8% | % Suppression (dpi) 7 (P. berghei (ANKA-strain); [11]): 76.8% | % Parasitaemia (dpi) 11 (P. berghei (ANKA-strain); [11]): 32.1% | % Suppression (dpi) 11 (P. berghei (ANKA-strain); [11]): 52.7% | % Parasitaemia (dpi) 14 (P. berghei (ANKA-strain); [12]): 56.2% | % Suppression (dpi) 14 (P. berghei (ANKA-strain); [12]): 9.2% | Health Status (P. berghei (ANKA-strain); [13]): From day 4 p.i. onwards: poor appearance, tremor, body weight loss, rough hair, one animal died before day 14 p.i. | survival until day 7 (P. berghei (ANKA-strain); [13]): 100% | IC50 (P. falciparum Dd2 [4]): 110 ± 20 nM | Tox/MRC-5 [5]: 51.5 µM | Kd (Fe^III-heme): 2 to 15 µM

CC1=C(Cc2ccc(N(C)C)cc2)C(=O)c2ccccc2C1=O [Compound 3, 2-(4-(Dimethylamino)benzyl)-3-methylnaphthalene-1,4-dione]
IC50 (P. falciparum Dd2 [3]; [14]): 567 ± 217 nM | Tox/MRC-5 [2]: >64.0 µM | pKa [6, 15]: 4.87 ± 0.03 | [LH+]pH5/[LH+]pH7.4 ([6]; Water/DMSO (0.91/0.09 v/v)): 144.7

CC1=C(Cc2ccc(NC(=O)OC(C)(C)C)cc2)C(=O)c2ccccc2C1=O [Compound 6, tert-Butyl(4-((3-Methyl-1,4-dioxo-1,4-dihydronaphthalen-2-yl)methyl)phenyl) carbamate]
IC50 (P. falciparum Dd2 [1]; [8]): 42.5 nM | IC50 (P. falciparum Dd2 [1]; [16]): 42 nM | IC50 (P. falciparum Dd2 [3]; [14]): 109 ± 46 nM | Tox/MRC-5 [2]: >64.0 µM | % Parasitaemia (dpi) 4 (P. berghei (ANKA-strain); [17]): 9.4% | % Suppression (dpi) 4 (P. berghei (ANKA-strain); [17]): 75.5% | % Parasitaemia (dpi) 7 (P. berghei (ANKA-strain); [17]): 7.7% | % Suppression (dpi) 7 (P. berghei (ANKA-strain); [17]): 81.8% | % Parasitaemia (dpi) 11 (P. berghei (ANKA-strain); [17]): 41.9% | % Suppression (dpi) 11 (P. berghei (ANKA-strain); [17]): 38.1% | % Parasitaemia (dpi) 14 (P. berghei (ANKA-strain); 50 mg/kg ip for 5 days, Swiss mice, day 14 post infection): 69.3% | Health Status (P. berghei (ANKA-strain); 50 mg/kg ip for 5 days, infected Swiss mice): From day 4 p.i. onwards: poor appearance (intermittent), one animal died before day 14 p.i.

CC1=C(Cc2ccc(N)cc2)C(=O)c2ccccc2C1=O [Compound 7, 2-(4-Aminobenzyl)-3-methylnaphthalene-1,4-dione]
IC50 (P. falciparum Dd2 [3]; [14]): 303 ± 138 nM | Tox/MRC-5 [2]: >64.0 µM | [LH+]pH5/[LH+]pH7.4 ([6]; Water): 162.5 | pKa ([6]; water with 0.1 M NaClO4): 4.74 ± 0.05

CC(=O)Nc1ccc(CC2=C(C)C(=O)c3ccccc3C2=O)cc1 [Compound 9, N-(4-((3-Methyl-1,4-dioxo-1,4-dihydronaphthalen-2-yl)methyl)phenyl)acetamide]
IC50 (P. falciparum Dd2 [3]; [10]): 411 ± 220 nM

CCN(CC)c1ccc(CC2=C(C)C(=O)c3ccccc3C2=O)cc1 [Compound 11, 2-(4-(Diethylamino)benzyl)-3-methylnaphthalene-1,4-dione]
IC50 (P. falciparum Dd2 [3]; [14]): 2060 ± 1070 nM | Tox/MRC-5 [2]: 29.3 µM | pKa [6, 15]: 5.07 ± 0.06 | [LH+]pH5/[LH+]pH7.4 ([6]; Water/DMSO (0.91/0.09 v/v)): 112.0

CC(=O)Nc1cccc(CC2=C(C)C(=O)c3ccccc3C2=O)c1 [Compound 16, N-(3-((3-Methyl-1,4-dioxo-1,4-dihydronaphthalen-2-yl)methyl)phenyl)acetamide]
IC50 (P. falciparum Dd2 [3]; [10]): 310 ± 134 nM

CC1=C(Cc2cccc(N(C)C)c2)C(=O)c2ccccc2C1=O [Compound 18, 2-(3-(Dimethylamino)benzyl)-3-methylnaphthalene-1,4-dione]
IC50 (P. falciparum Dd2 [3]; [14]): 386 ± 151 nM | Tox/MRC-5 [2]: >64.0 µM | pKa [6, 15]: 4.6 ± 0.04 | [LH+]pH5/[LH+]pH7.4 ([6]; Water/DMSO (0.91/0.09 v/v)): 179.9

CCN(CC)c1cccc(CC2=C(C)C(=O)c3ccccc3C2=O)c1 [Compound 19, 2-(3-(Diethylamino)benzyl)-3-methylnaphthalene-1,4-dione]
IC50 (P. falciparum Dd2 [3]; [14]): 236 ± 97 nM | Tox/MRC-5 [2]: >64.0 µM | pKa [6, 15]: 5 to 5.5 | pH of precipitation during the titration [6]: ~ 5

CC(=O)Nc1ccccc1CC1=C(C)C(=O)c2ccccc2C1=O [Compound 22, N-(2-((3-Methyl-1,4-dioxo-1,4-dihydronaphthalen-2-yl)methyl)phenyl)acetamide]
IC50 (P. falciparum Dd2 [3]; [14]): 282 ± 86 nM | Tox/MRC-5 [2]: 4.4 µM | melting point: 218 to 220 °C

CC1=C(Cc2ccc(-c3ccc(N(C)C)cc3)cc2)C(=O)c2ccccc2C1=O [Compound 26, 2-(4′-Dimethylamino-biphenyl-4-ylmethyl)-3-methyl-[1,4]naphthoquinone]
fold higher IC50 value than plasmodione (P. falciparum Dd2 [1]; P. falciparum Dd2, hypoxanthine incorporation test): 10 fold | IC50 (P. falciparum Dd2 [1]; [8]): 223 nM | IC50 (P. falciparum Dd2 [1]; [16]): 229 nM | Tox/MRC-5 [2]: >64.0 µM | melting point: 170 to 171 °C

CC1=C(Cc2ccc(-c3ccc(C(C)(C)C)cc3)cc2)C(=O)c2ccccc2C1=O [Compound 27, 2-(4′-tert-Butyl-biphenyl-4-ylmethyl)-3-methyl-[1,4]naphthoquinone]
IC50 (P. falciparum Dd2 [1]; [16]): 485 nM | Tox/MRC-5 [2]: >64.0 µM | melting point: 112 to 114 °C

OCCN(CCO)c1ccccc1 [N-phenyldiethanolamine]
pKa [7]: 4.13

para-N-ethyl-3-benzylmenadione [Compound 10]
IC50 (P. falciparum Dd2 [3]; [9]): 418 ± 166 nM | Tox/MRC-5 [2]: >64.0 µM | pKa ± σ [6]: 5–5.5 | pH of precipitation during the titration [6]: ~ 5
